Data reported in patent publication WO2015077660A1, “Enzyme reactor system enabling enhanced enzymatic digestion, analyte solubility and improved mass spectrometric compatibility” (priority 2013, dated 2014).
Where a name gives a salt, the structure may show the parent alone. One block for each compound: values may come before it.

Experiments:
porcine trypsin [1] = tested on: T1, porcine trypsin; assay: Comparing digestion buffers, solution digestion of insulin; type: biochemical; conditions: 37°C, 18 hours, versus tris buffer containing calcium chloride
T1 construct: purchased

[2] = Aggregation of BSA in IMER, ammonium acetate, 5mM CaCl2, 0.1% octylglucoside (Table 33); type: physicochemical; conditions: 0.1% in 50mM ammonium acetate, 5mM CaCl2, 70°C
porcine trypsin [3] = tested on: T1, porcine trypsin; assay: Insulin digestion by trypsin in solution, buffer screening (Table 9); type: biochemical; conditions: for Digested / Peptide / Undigested: 37°C, 18 h; for trypsin digestion: high concentrations, as high as 500 mM
BSA = assay: Screen of additives for prevention of aggregation (Table 5); type: physicochemical, bovine; conditions: 12.5 mg/mL BSA, 70°C, four columns in printed order, heads missing
trypsin [4] = assay: Insulin digestion in immobilized enzyme reactor, buffer screening (Table 7); type: biochemical, porcine; conditions: IMER; for Digested / Peptide / Undigested: 70°C, 60 s; for digestion efficiency: CaCl2 as high as 500 mM
[5] = Plasma digestion with buffer/additive combinations, aggregation; type: physicochemical, beagle; conditions: 100mM CaCl2, 90 minutes
[6] = Aggregation of BSA in IMER, ammonium acetate, 5mM CaCl2, 5% glycerol (Table 34); type: physicochemical; conditions: 5% and 10% (Tables 34 and 35), 50mM ammonium acetate, 5mM CaCl2, 70°C
[7] = Aggregate formation on digestion at high protein loads; type: physicochemical, monkey; conditions: 10% final concentration with 500 mM CaCl2
trypsin [8] = assay: Human IgG digestion in response to calcium concentration (Table 11); type: biochemical, porcine; conditions: CaCl2 above 1 mM
[9] = additive concentration not given

- enzyme activity (porcine trypsin [1]): significantly higher
Compound: N.O=C(O)O [ammonium bicarbonate]

- aggregation (BSA; [9]): Ν
- Digested (trypsin [4]; 0.05%): 2394275
- Peptide (trypsin [4]; 0.05%): 958775
- Undigested (trypsin [4]; 0.05%): 1730676
- Digested (trypsin [4]; 0.1%): 2255277
- Peptide (trypsin [4]; 0.1%): 891922
- Undigested (trypsin [4]; 0.1%): 2114234
- Digested (trypsin [4]; 0.15%): 2430665
- Peptide (trypsin [4]; 0.15%): 942341
- Undigested (trypsin [4]; 0.15%): 2160281
- Digested (trypsin [4]; 0.2%): 2255277
- Peptide (trypsin [4]; 0.2%): 891922
- Undigested (trypsin [4]; 0.2%): 2114234
- aggregation ([5]; 0.1% in 50mM TBS): significant aggregation
Compound: CCCCCCCCO[C@@H]1O[C@H](CO)[C@@H](O)[C@H](O)[C@H]1O [OGS, octylglucoside]
- sample solubility and aggregation [2]: enhances sample solubility and prevents aggregation
- Digested (porcine trypsin [3]; 0.05%): 1424601
- Peptide (porcine trypsin [3]; 0.05%): 581489
- Undigested (porcine trypsin [3]; 0.05%): 3798587
- Digested (porcine trypsin [3]; 0.1%): 1616907
- Peptide (porcine trypsin [3]; 0.1%): 675287
- Undigested (porcine trypsin [3]; 0.1%): 4128179
- Digested (porcine trypsin [3]; 0.15%): 1538290
- Peptide (porcine trypsin [3]; 0.15%): 636117
- Undigested (porcine trypsin [3]; 0.15%): 3751677
- Digested (porcine trypsin [3]; 0.2%): 1574071
- Peptide (porcine trypsin [3]; 0.2%): 619589
- Undigested (porcine trypsin [3]; 0.2%): 3732438

- aggregation (BSA; 0.5M, listed as Guanidine HC1, hydrochloride): N and Ν
- Digested (trypsin [4]; 0.5M): 723258
- Peptide (trypsin [4]; 0.5M): 309390
- Undigested (trypsin [4]; 0.5M): 4114993
- Digested (trypsin [4]; 1M): 423606
- Peptide (trypsin [4]; 1M): 179523
- Undigested (trypsin [4]; 1M): 4328875
- Digested (trypsin [4]; 2M): 136773
- Peptide (trypsin [4]; 2M): 56700
- Undigested (trypsin [4]; 2M): 4244827
- Digested (trypsin [4]; 4M): 40578
- Peptide (trypsin [4]; 4M): 15000
- Undigested (trypsin [4]; 4M): 4562051
- Digested (trypsin [4]; 6M): 9402
- Peptide (trypsin [4]; 6M): 2447
- Undigested (trypsin [4]; 6M): 4396495
Compound: N=C(N)N [Gdn HC1, guanidine hydrochloride]
- Digested (porcine trypsin [3]; 0.5M): 216251
- Peptide (porcine trypsin [3]; 0.5M): 101735
- Undigested (porcine trypsin [3]; 0.5M): 5487176
- Digested (porcine trypsin [3]; 1M): 215746
- Peptide (porcine trypsin [3]; 1M): 94828
- Undigested (porcine trypsin [3]; 1M): 5229914
- Digested (porcine trypsin [3]; 2M): 184318
- Peptide (porcine trypsin [3]; 2M): 67546
- Undigested (porcine trypsin [3]; 2M): 5455780
- Digested (porcine trypsin [3]; 4M): 30954
- Peptide (porcine trypsin [3]; 4M): 11014
- Undigested (porcine trypsin [3]; 4M): 6195166
- Digested (porcine trypsin [3]; 6M): 5871
- Peptide (porcine trypsin [3]; 6M): 1647
- Undigested (porcine trypsin [3]; 6M): 5301367

Compound: CN(C)C=O [DMF, dimet ylformamide]
- aggregation (BSA; 20%): Y and Υ

Compound: C[C@H](CCC(=O)O)[C@H]1CC[C@H]2[C@@H]3CC[C@@H]4C[C@H](O)CC[C@]4(C)[C@H]3C[C@H](O)[C@]12C [Deoxycholate]
- aggregation (BSA; [9]): Υ

- aggregation (BSA; 5%): Ν
- aggregation (BSA; 10%): Ν
- formation of aggregates [7]: prevented the formation of aggregates
- Digested (trypsin [4]; 5%): 2051870
- Peptide (trypsin [4]; 5%): 828171
- Undigested (trypsin [4]; 5%): 2217803
- Digested (trypsin [4]; 10%): 1779261
- Peptide (trypsin [4]; 10%): 697488
- Undigested (trypsin [4]; 10%): 2432362
- Digested (trypsin [4]; 20%): 1167862
- Peptide (trypsin [4]; 20%): 445736
- Undigested (trypsin [4]; 20%): 3174668
- aggregation ([5]; 10% in 50mM TBS): no aggregation
Compound: OCC(O)CO [Glycerol]
- Digested (porcine trypsin [3]; 5%): 1007768
- Peptide (porcine trypsin [3]; 5%): 432166
- Undigested (porcine trypsin [3]; 5%): 3685707
- Digested (porcine trypsin [3]; 10%): 833521
- Peptide (porcine trypsin [3]; 10%): 353626
- Undigested (porcine trypsin [3]; 10%): 4404492
- Digested (porcine trypsin [3]; 20%): 654553
- Peptide (porcine trypsin [3]; 20%): 275165
- Undigested (porcine trypsin [3]; 20%): 5163829
- digestion efficiency (porcine trypsin [3]; lower to moderate concentrations): does not significantly, negatively impact digestion efficiency
- sample solubility and aggregation [6]: enhances sample solubility and prevents aggregation

Compound: NC=O [Formamide]
- Digested (porcine trypsin [3]; 5%): 1126069
- Peptide (porcine trypsin [3]; 5%): 500704
- Undigested (porcine trypsin [3]; 5%): 3871868
- Digested (porcine trypsin [3]; 10%): 1509456
- Peptide (porcine trypsin [3]; 10%): 693291
- Undigested (porcine trypsin [3]; 10%): 4196754
- Digested (porcine trypsin [3]; 15%): 973971
- Peptide (porcine trypsin [3]; 15%): 421130
- Undigested (porcine trypsin [3]; 15%): 4281392
- Digested (porcine trypsin [3]; 20%): 470938
- Peptide (porcine trypsin [3]; 20%): 194156
- Undigested (porcine trypsin [3]; 20%): 4620417
- Digested (trypsin [4]; 5%): 1424720
- Peptide (trypsin [4]; 5%): 580956
- Undigested (trypsin [4]; 5%): 3061491
- Digested (trypsin [4]; 10%): 745680
- Peptide (trypsin [4]; 10%): 305599
- Undigested (trypsin [4]; 10%): 3827192
- Digested (trypsin [4]; 15%): 375288
- Peptide (trypsin [4]; 15%): 155245
- Undigested (trypsin [4]; 15%): 4129486
- Digested (trypsin [4]; 20%): 200621
- Peptide (trypsin [4]; 20%): 82549
- Undigested (trypsin [4]; 20%): 4430620
- aggregation ([5]; 10% in 50mM TBS): significant aggregation

Compound: [Cl-].[Na+] [NaCl]
- Digested (porcine trypsin [3]; 0.1M): 1527956
- Peptide (porcine trypsin [3]; 0.1M): 648564
- Undigested (porcine trypsin [3]; 0.1M): 3295178
- Digested (porcine trypsin [3]; 0.25M): 1178089
- Peptide (porcine trypsin [3]; 0.25M): 484049
- Undigested (porcine trypsin [3]; 0.25M): 3432057
- Digested (porcine trypsin [3]; 0.5M): 884946
- Peptide (porcine trypsin [3]; 0.5M): 350436
- Undigested (porcine trypsin [3]; 0.5M): 4517343
- Digested (porcine trypsin [3]; 1M): 670170
- Peptide (porcine trypsin [3]; 1M): 249834
- Undigested (porcine trypsin [3]; 1M): 4981512
- Digested (porcine trypsin [3]; 2M): 378641
- Peptide (porcine trypsin [3]; 2M): 111600
- Undigested (porcine trypsin [3]; 2M): 4745627
- Digested (trypsin [4]; 0.1M): 2262987
- Peptide (trypsin [4]; 0.1M): 925368
- Undigested (trypsin [4]; 0.1M): 1557233
- Digested (trypsin [4]; 0.25M): 2119184
- Peptide (trypsin [4]; 0.25M): 866812
- Undigested (trypsin [4]; 0.25M): 2102900
- Digested (trypsin [4]; 0.5M): 2146822
- Peptide (trypsin [4]; 0.5M): 862093
- Undigested (trypsin [4]; 0.5M): 1679944
- Digested (trypsin [4]; 1M): 2363025
- Peptide (trypsin [4]; 1M): 944511
- Undigested (trypsin [4]; 1M): 1205692
- Digested (trypsin [4]; 2M): 2660004
- Peptide (trypsin [4]; 2M): 966823
- Undigested (trypsin [4]; 2M): 332026

Compound: [Ca+2].[Cl-].[Cl-] [CaCl2, calcium chloride]
- Digested (porcine trypsin [3]; 0.05M): 2007752
- Peptide (porcine trypsin [3]; 0.05M): 860714
- Undigested (porcine trypsin [3]; 0.05M): 2746822
- Digested (porcine trypsin [3]; 0.1M): 2377399
- Peptide (porcine trypsin [3]; 0.1M): 1074482
- Undigested (porcine trypsin [3]; 0.1M): 2139571
- Digested (porcine trypsin [3]; 0.25M): 3241428
- Peptide (porcine trypsin [3]; 0.25M): 1430859
- Undigested (porcine trypsin [3]; 0.25M): 2885626
- Digested (porcine trypsin [3]; 0.5M): 3340960
- Peptide (porcine trypsin [3]; 0.5M): 1474912
- Undigested (porcine trypsin [3]; 0.5M): 856015
- Digested (porcine trypsin [3]; 1M): 3203158
- Peptide (porcine trypsin [3]; 1M): 1344334
- Undigested (porcine trypsin [3]; 1M): 949033
- trypsin digestion (porcine trypsin [3]): An increase in digestion was observed
- trypsin digestion (porcine trypsin [3]; listed as calcium chloride): dramatically improve trypsin digestion
- Digested (trypsin [4]; 0.05M): 2725600
- Peptide (trypsin [4]; 0.05M): 1172085
- Undigested (trypsin [4]; 0.05M): 802494
- Digested (trypsin [4]; 0.1M): 2844924
- Peptide (trypsin [4]; 0.1M): 1221898
- Undigested (trypsin [4]; 0.1M): 609138
- Digested (trypsin [4]; 0.25M): 2950068
- Peptide (trypsin [4]; 0.25M): 1264212
- Undigested (trypsin [4]; 0.25M): 571246
- Digested (trypsin [4]; 0.5M): 3031625
- Peptide (trypsin [4]; 0.5M): 1290650
- Undigested (trypsin [4]; 0.5M): 234332
- Digested (trypsin [4]; 1M): 3066738
- Peptide (trypsin [4]; 1M): 1263872
- Undigested (trypsin [4]; 1M): 16129
- digestion efficiency (trypsin [4]): An increase in digestion was observed
- digestion efficiency (trypsin [4]; listed as calcium chloride): digestion efficiency increased dramatically
- enzyme efficiency (trypsin [8]): increase enzyme efficiency
